Test results: patent US11548925B2, “CACNA1H-derived tumor antigen polypeptide and use thereof” (Genoimmune Therapeutics Co., Ltd., priority 2016, dated 2023)

Tested on: H2087-TLISSLMPI (SEQ ID NO: 2) subcutaneous tumor
Experiment: Peptide + Freund's adjuvant vaccine in H2087-[…] subcutaneous tumor model
Assay type: in vivo, NOD/SCID mice
Conditions: peptide 100 μg/mouse + Freund's adjuvant s.c., 4 immunizations; vs adjuvant alone and wild-type peptide
Protocol: 600-900 ml of anticoagulated peripheral blood was collected from healthy volunteers for isolating peripheral blood mononuclear cells (PBMCs) via Ficoll. Cells were collected for use. 2×10^7 PBMCs per 0.5 ml was intraperitoneally injected into each of 300 NOD SCID mice without immune leakage to perform human immune reconstitution in NOD SCID mice. After 4 weeks, the mice were selected to be inoculated with the human lung cancer cell line.
The human non-small cell lung adenocarcinoma cell line H2087-[…] (SEQ ID NO: 2) as established in Example 7 was cultured in DMEM medium containing 10% fetal bovine serum, 100 U/mL penicillin and 100 U/mL streptomycin in an incubator at 37° C., 5% CO2. H2087-[…] (SEQ ID NO: 2) tumor cells were collected, centrifuged at 1500 rpm for 5 min, and washed 3 times with sterile physiological saline. The tumor cells were diluted appropriately. […] The long diameter a and the short diameter b of the tumor were measured with a vernier caliper every 2-3 days and the size of the tumor was calculated as a*b*b/2. The mice and tumors were weighed and recorded every day. […] The tumor volume and the survival rate of mice were recorded every 2 days.
The H2087-[…] […] The longest diameter (a) and the shortest diameter (b) of a tumor were measured with a vernier caliper every 2 days. Tumor volume was calculated as: ½×length×width^2. […]

Question: What does the source list for “TLISSLMPI [tumor antigen peptide from CACNA1H mutation, position 1428 arginine to methionine]”?
Answer: Survival period of mice: prolonged the survival period of mice; Tumor growth: effectively inhibited tumor growth
